Data from patent US7465783B2, “Plant peptide with antimicrobial activity” (Centre National de la Recherche Scientifique, priority 2002, dated 2008).
Ends that are not written are not given here.

Key:
Type in all cases: cell-based
[1] = tested on: protoplasts of Arabidopsis thaliana
Description: This experiment has the aim of determining whether the effect of the peptide on the viability of the protoplasts of Arabidopsis thaliana corresponds to the cell necrosis or else to the implementation of the process of programmed cell death or apoptosis.
Apoptosis is distinguished from necrosis by a rigorous staging of death, punctuated by a set of genetically controlled events (Vaux and Korsmeyer (Cell, 1999, 96: 245-254); Pennell and Lamb (Plant Cell, 1997, 9: 1157-1168); Greenberg (P.N.A.S., 1996, 93: 12094-12097)). […] The TUNEL reaction allows the free 3′OH ends present in great quantity in the nuclei whose DNA is fragmented in the course of the process of apoptosis to be labeled.
The external application of the peptide of 25 amino acids to protoplasts of Arabidopsis thaliana at 5 μM for 2 hours allows an increase in the population of positive TUNEL protoplasts to be observed (FIG. 5B). 4 times more nuclei show DNA fragmentation characteristics with respect to the control.

[2] = tested on: Pseudomonas syringae pv tomato strain DC3000; experiment: Antimicrobial (bacteriostatic) activity, peptide drops on TOPagar lawn
Procedure: (§1) Toxicity experiments on the peptide of 25 amino acids (SUP 25) purified in the preceding example on different bacteria were carried out. The different bacteria are cultured in 5 ml of LB medium or of medium appropriate to the strain, and then sedimented by centrifugation at 3000 g, and finally taken up in a volume of LB identical to the volume of bacteria. 50 μl of bacteria are inoculated into 9 ml of liquid TOPagar (LB+7 g/l of bactoagar) at 48° C. and rapidly poured into a square LB agar dish of 10 cm on each side. The drops of 10 μl of different concentrations of peptides are deposited on the solidified ToPagar. The dish is cultured for 16 hours. Cecropin A at 20 μM, an insect peptide recognized as having antibacterial activity, serves as a positive control.

[3] = tested on: Xanthomonas campestris pv campestris strain 8004; experiment: as above
Procedure: as §1

[4] = tested on: Escherichia coli Strain DH5α; experiment: as above
Procedure: as §1

Row | Substance | cytotoxic activity (fragmentation of nuclear DNA, TUNEL), in words [1] | Cecropin A 20 μM (positive control, antibacterial activity) [2] | Cecropin A 20 μM (positive control, antibacterial activity) [3] | Cecropin A 20 μM (positive control, antibacterial activity) [4]
1 | MWWLVGLTPVELIHLSAFRERLSHL [Pep2S] | has a cytotoxic activity | – | – | –
2 | MWWLVGLTPVELIHLCAFRERLSHL [Pep1S] | no longer has cytotoxic activity | – | – | –
3 | Cecropin A [reference compound] | – | Positive | Positive | Positive
